The data set concerns the target hemoglobin (Hb) (Homo sapiens, UniProt P68871+P69905). The data set can be described thus: Anti-degradation ability of produced nitric oxide in the presence of hemoglobin. Format: physicochemical. The note with it: in the presence of hemoglobin compared to absence of hemoglobin. The source says:
As mentioned above, the half-life of nitric oxide is quite short due to the reaction between nitric oxide and erythrocyte in plasma or ceruloplasmin. Please refer to FIG. 6A and FIG. 6B.
However, the half-life of nitric oxide, which is produced by using the temperature-responsive composition of the 1st embodiment in the present disclosure in the presence of hemoglobin, only has a degradation of 40% as shown in FIG. 6B. That is, it proves that applying the temperature-responsive composition of the present disclosure can extend the half-life of the produced nitric oxide.

hemoglobin (Hb), sequence (P69905 2-142 limits assumed): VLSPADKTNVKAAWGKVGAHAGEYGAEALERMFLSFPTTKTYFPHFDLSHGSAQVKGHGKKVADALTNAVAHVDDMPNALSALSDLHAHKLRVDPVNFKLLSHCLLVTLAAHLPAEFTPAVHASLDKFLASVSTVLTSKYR
hemoglobin (Hb), sequence (P68871 2-147 limits assumed): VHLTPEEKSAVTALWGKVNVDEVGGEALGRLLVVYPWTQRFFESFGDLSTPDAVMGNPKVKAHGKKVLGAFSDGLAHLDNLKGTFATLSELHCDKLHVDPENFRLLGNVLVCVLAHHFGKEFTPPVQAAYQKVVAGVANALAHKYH

In the case of `NCCN(CCN)/[N+]([O-])=N/O` [diethylenetriaine-NONOate], the “degradation of the half-life of the produced nitric oxide” value is on record as 85%.

For the origin of these results see patent US20180161276A1, “TEMPERATURE-RESPONSIVE COMPOSITION, METHOD FOR FABRICATING, AND USE THEREOF” (NATIONAL TSING HUA UNIVERSITY, priority 2016, published 2018).
